Several values for one entry are separate records, joined by “and”; a condition that tells them apart may be missing. Identical values can stand only once.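 1) Cells in 96-well plates. 2) Compound, 48 h, 5 concentrations. 3) Linear interpolation between surrounding doses. 4) Unreached endpoint = highest concentration. GI50: concentration for 50% inhibition of growth.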 Activity calls are given as the source filed them. Rule as the data show it: active = GI50 up to about 1.1 µM and inactive = higher.
Experiments:
Assay in all cases: NCI anticancer screen, dose series, 48 h
[1] = tested on: T47D
[2] = tested on: KM12
[3] = tested on: SK-MEL-5
[4] = tested on: SF-539
[5] = tested on: NCI-H226
[6] = tested on: SK-OV-3
[7] = tested on: ACHN
[8] = tested on: A549
[9] = tested on: SN12C
[10] = tested on: UACC-257
[11] = tested on: HCT-15
[12] = tested on: OVCAR-4
[13] = tested on: HOP-92
[14] = tested on: DU-145
[15] = tested on: K562
[16] = tested on: OVCAR-8
[17] = tested on: RPMI-8226
[18] = tested on: MCF7
[19] = tested on: HCC 2998

SMILES	GI50 [1]	GI50 [2]	GI50 [3]	GI50 [4]	GI50 [5]	GI50 [6]	GI50 [7]	GI50 [8]	GI50 [9]	GI50 [10]	GI50 [11] [µM]	GI50 [12]	GI50 [13]	GI50 [14]	GI50 [15]	GI50 [16]	GI50 [17]	GI50 [18]	GI50 [19]
CN(C)CCCc1c2ccccc2nc2ccc(Cl)cc12	36.5 µM (inactive)	17.9 µM (inactive)	14.4 µM (inactive)	16.6 µM (inactive)	24.2 µM (inactive)	20.7 µM (inactive)	14.9 µM (inactive)	13.9 µM (inactive)	10.3 µM (inactive)	13.3 µM (inactive)	30.5	18.6 µM (inactive)	9.53 µM (inactive)	21.4 µM (inactive)	19.1 µM (inactive)	15.9 µM (inactive)	21.3 µM (inactive)	6.76 µM (inactive)	–
O=C(Nc1ccc(-c2cn3ccccc3n2)cc1)c1cc(Br)ccc1O	> 100 µM (inactive)	> 100 µM (inactive)	> 100 µM (inactive)	> 100 µM (inactive)	> 100 µM (inactive)	> 100 µM (inactive)	> 100 µM (inactive)	> 100 µM (inactive)	> 100 µM (inactive)	> 100 µM (inactive)	> 100	> 100 µM (inactive)	> 100 µM (inactive)	> 100 µM (inactive)	> 100 µM (inactive)	> 100 µM (inactive)	> 100 µM (inactive)	> 100 µM (inactive)	–
COc1cc2c(cc1OC)C1Cc3cc(OC)c(OC)cc3C(C2)N1C	> 75 µM (inactive)	44.3 µM (inactive)	> 100 µM (inactive)	20.8 µM (inactive)	> 75 µM (inactive)	> 75 µM (inactive)	> 100 µM (inactive)	> 100 µM (inactive)	> 100 µM (inactive) and 62.5 µM (inactive)	> 100 µM (inactive)	> 100	> 100 µM (inactive)	7.71 µM (inactive)	> 75 µM (inactive)	> 100 µM (inactive)	> 100 µM (inactive)	–	> 75 µM (inactive)	> 75 µM (inactive)
O=C1C/C(=N/c2ccc(Cl)cc2)C(c2ccccc2)N1c1ccccc1 (stereo not given)	1.38 µM (inactive)	6.61 µM (inactive)	5.9 µM (inactive)	14 µM (inactive)	10.1 µM (inactive)	5.92 µM (inactive)	6.43 µM (inactive)	17.4 µM (inactive)	23.9 µM (inactive)	17.4 µM (inactive)	5.92	14.3 µM (inactive)	10.3 µM (inactive)	6.61 µM (inactive)	1.32 µM (inactive)	–	2.28 µM (inactive)	10 µM (inactive)	> 100 µM (inactive)
CSc1nc(C)cc(Nc2ccc(O)c(CN3CCCCC3)c2)n1	68.1 µM (inactive)	> 100 µM (inactive)	25.3 µM (inactive)	43.3 µM (inactive)	32.4 µM (inactive)	> 100 µM (inactive)	83 µM (inactive)	> 100 µM (inactive)	56.6 µM (inactive)	–	86.3	> 100 µM (inactive)	72.4 µM (inactive)	64.3 µM (inactive)	30.6 µM (inactive)	> 100 µM (inactive)	23.3 µM (inactive)	67.6 µM (inactive)	–
CCCC[P+](CCCC)(CCCC)C(C(=O)OC)C(C(=O)OC)=C1SC(C(=O)OC)=C(C(=O)OC)S1 (stereo not given)	> 100 µM (inactive)	–	> 100 µM (inactive)	–	> 100 µM (inactive)	> 100 µM (inactive)	> 100 µM (inactive)	> 100 µM (inactive)	> 100 µM (inactive)	> 100 µM (inactive)	> 100	> 100 µM (inactive)	> 100 µM (inactive)	> 100 µM (inactive)	–	> 100 µM (inactive)	> 100 µM (inactive)	> 100 µM (inactive)	–
CC(=O)NCCSC(=O)c1ccccc1	0.197 µM (active)	0.449 µM (active)	0.0171 µM (active)	0.387 µM (active)	0.116 µM (active)	1.13 µM (inactive)	< 0.0195 µM (active)	0.155 µM (active)	0.0853 µM (active)	0.19 µM (active)	0.156	1.38 µM (inactive)	0.918 µM (active)	0.199 µM (active)	0.285 µM (active)	0.192 µM (active)	0.131 µM (active)	0.0653 µM (active)	–
Cc1cccc2oc3c(c(=O)c12)CC(O)C(C)(C)O3 (stereo not given)	> 100 µM (inactive)	> 100 µM (inactive)	> 100 µM (inactive)	> 100 µM (inactive)	> 100 µM (inactive)	> 100 µM (inactive)	> 100 µM (inactive)	> 100 µM (inactive)	> 100 µM (inactive)	> 100 µM (inactive)	> 100	> 100 µM (inactive)	> 100 µM (inactive)	> 100 µM (inactive)	> 100 µM (inactive)	–	74.1 µM (inactive)	> 100 µM (inactive)	> 100 µM (inactive)
COc1cc(NCc2ccc3nc(OC)c(OC)nc3c2)cc(OC)c1OC	18.6 µM (inactive)	> 100 µM (inactive)	> 100 µM (inactive)	> 100 µM (inactive)	> 100 µM (inactive)	> 100 µM (inactive)	> 100 µM (inactive)	> 100 µM (inactive)	> 100 µM (inactive)	> 100 µM (inactive)	> 100	> 100 µM (inactive)	> 100 µM (inactive)	> 100 µM (inactive)	97.3 µM (inactive)	> 100 µM (inactive)	–	69.5 µM (inactive)	> 100 µM (inactive)
Cc1ccnc2sc3ccccc3c(=O)c12	55.3 µM (inactive)	53.7 µM (inactive)	24.7 µM (inactive)	33.4 µM (inactive)	36.1 µM (inactive)	37.3 µM (inactive)	35.1 µM (inactive)	–	40.4 µM (inactive)	55.2 µM (inactive)	52.2	> 100 µM (inactive)	54 µM (inactive)	84.3 µM (inactive)	42.8 µM (inactive)	43.1 µM (inactive)	36.7 µM (inactive)	38.4 µM (inactive)	42.3 µM (inactive)
N=C(c1cccs1)C1(N2CCCCC2)CCCCC1	11.6 µM (inactive)	17.6 µM (inactive)	–	–	–	19.6 µM (inactive)	16.9 µM (inactive)	27.7 µM (inactive)	33.8 µM (inactive)	15.6 µM (inactive)	14.8	20.5 µM (inactive)	20.8 µM (inactive)	15.8 µM (inactive)	16.4 µM (inactive)	–	16.5 µM (inactive)	16.6 µM (inactive)	14.1 µM (inactive)
COc1cc(/C=C/c2nc(N)nnc2C)cc(OC)c1OC	12.1 µM (inactive)	10.9 µM (inactive)	14.1 µM (inactive)	–	10.1 µM (inactive)	31.5 µM (inactive)	15.5 µM (inactive)	20.3 µM (inactive)	> 70 µM (inactive)	37.7 µM (inactive)	4.04	27.9 µM (inactive)	16.6 µM (inactive)	> 57 µM (inactive)	15.5 µM (inactive)	13 µM (inactive)	14.1 µM (inactive)	4.8 µM (inactive)	9.86 µM (inactive)
COC(=O)c1cc(C)ccc1C1CN=NC12Cc1cccc(C)c1C2=O (stereo not given)	12.3 µM (inactive)	26.2 µM (inactive)	18 µM (inactive)	51.6 µM (inactive)	33.1 µM (inactive)	–	28.2 µM (inactive)	31.7 µM (inactive)	43.9 µM (inactive)	30.9 µM (inactive)	27.6	25.5 µM (inactive)	30.5 µM (inactive)	42.5 µM (inactive)	33.3 µM (inactive)	33.1 µM (inactive)	16.8 µM (inactive)	30.1 µM (inactive)	37.9 µM (inactive)
O=C1c2cc3ccccc3cc2C2(c3ccc(Cl)cc3)N[C@H]3CCCC[C@@H]3N12 (stereo not given in full)	7.4 µM (inactive)	16.9 µM (inactive)	16.7 µM (inactive)	10.1 µM (inactive)	–	14.6 µM (inactive)	15.2 µM (inactive)	9.62 µM (inactive)	16.6 µM (inactive)	19.4 µM (inactive)	21.6	6.34 µM (inactive)	27.8 µM (inactive)	17.9 µM (inactive)	26.9 µM (inactive)	5.77 µM (inactive)	18.4 µM (inactive)	24.7 µM (inactive)	–
CCN(CC)/N=N/c1c(C(N)=O)n[nH]c1C	60.3 µM (inactive)	50 µM (inactive)	33.7 µM (inactive)	29.5 µM (inactive)	48.9 µM (inactive)	22.1 µM (inactive)	32.8 µM (inactive)	69 µM (inactive)	40.6 µM (inactive)	> 100 µM (inactive)	63.7	> 100 µM (inactive)	11.3 µM (inactive)	69.5 µM (inactive)	–	49.4 µM (inactive)	44.2 µM (inactive)	30.5 µM (inactive)	> 100 µM (inactive)
O=C1NC(=O)[C@@]2(CC[C@@H](O)C2)c2ccncc21 [SESBANINE]	> 100 µM (inactive)	> 100 µM (inactive)	> 100 µM (inactive)	> 100 µM (inactive)	> 100 µM (inactive)	> 100 µM (inactive)	> 100 µM (inactive)	> 100 µM (inactive)	> 100 µM (inactive)	> 100 µM (inactive)	> 100	> 100 µM (inactive)	> 100 µM (inactive)	> 100 µM (inactive)	> 100 µM (inactive)	> 100 µM (inactive)	–	> 100 µM (inactive)	> 100 µM (inactive)

Reference: ChEMBL document CHEMBL1201862, “PubChem BioAssay data set” (2004)
